Assay results published in the kinase profiling compilation of Christmann-Franck et al. (2016).

How the values were obtained:
Experiment in all cases: KINOMEscan competition binding
Conditions in all cases: compound 10.0 µM
CSNK2A2 (human) = CSNK2A2 (human) (UniProt P19784)
CSNK2A1 (human) = CSNK2A1 (human) (UniProt P68400)
AKT2 (human) = AKT2 (human) (UniProt P31751)
CDC2L2 (human) = CDC2L2 (human) (UniProt Q9UQ88)
CDK9 (human) = CDK9 (human) (UniProt P50750)
MKNK1 (human) = MKNK1 (human) (UniProt Q9BUB5)
LIMK2 (human) = LIMK2 (human) (UniProt P53671)
CAMK2D (human) = CAMK2D (human) (UniProt Q13557)
MYLK (human) = MYLK (human) (UniProt Q15746)
PAK1 (human) = PAK1 (human) (UniProt Q13153)
FLT4 (human) = FLT4 (human) (UniProt P35916)
LATS1 (human) = LATS1 (human) (UniProt O95835)
LATS1 (human), sequence (O95835 whole entry, looked up): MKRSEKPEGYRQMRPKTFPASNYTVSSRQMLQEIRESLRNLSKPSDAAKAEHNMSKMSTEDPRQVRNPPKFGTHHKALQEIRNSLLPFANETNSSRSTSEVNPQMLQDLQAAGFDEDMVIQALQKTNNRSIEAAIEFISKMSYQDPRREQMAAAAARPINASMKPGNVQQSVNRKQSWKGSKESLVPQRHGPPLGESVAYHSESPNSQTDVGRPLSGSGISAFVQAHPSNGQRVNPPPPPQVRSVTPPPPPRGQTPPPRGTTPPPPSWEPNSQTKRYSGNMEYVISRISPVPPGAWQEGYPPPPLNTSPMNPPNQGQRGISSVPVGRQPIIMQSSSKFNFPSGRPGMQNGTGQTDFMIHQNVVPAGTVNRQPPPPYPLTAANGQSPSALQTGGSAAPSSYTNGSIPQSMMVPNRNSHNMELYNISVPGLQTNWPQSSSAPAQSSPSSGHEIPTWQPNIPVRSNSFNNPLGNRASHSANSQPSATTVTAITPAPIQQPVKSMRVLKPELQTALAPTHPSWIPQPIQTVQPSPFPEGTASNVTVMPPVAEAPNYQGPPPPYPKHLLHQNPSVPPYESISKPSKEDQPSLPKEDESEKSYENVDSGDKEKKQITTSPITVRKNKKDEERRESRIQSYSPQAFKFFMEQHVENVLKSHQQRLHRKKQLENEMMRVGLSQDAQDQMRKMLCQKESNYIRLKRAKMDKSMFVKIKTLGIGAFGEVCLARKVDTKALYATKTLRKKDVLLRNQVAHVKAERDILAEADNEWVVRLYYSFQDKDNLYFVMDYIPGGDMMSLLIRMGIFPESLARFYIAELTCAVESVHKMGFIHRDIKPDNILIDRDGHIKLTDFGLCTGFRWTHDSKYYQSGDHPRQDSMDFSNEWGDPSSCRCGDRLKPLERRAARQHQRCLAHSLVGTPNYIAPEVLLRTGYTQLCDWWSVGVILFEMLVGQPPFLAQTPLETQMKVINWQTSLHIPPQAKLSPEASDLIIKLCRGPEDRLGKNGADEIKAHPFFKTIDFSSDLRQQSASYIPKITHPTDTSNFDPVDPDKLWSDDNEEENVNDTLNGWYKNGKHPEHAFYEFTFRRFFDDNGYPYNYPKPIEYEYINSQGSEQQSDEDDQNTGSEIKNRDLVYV

PRKD1 (human) = PRKD1 (human) (UniProt Q15139)
AURKC (human) = AURKC (human) (UniProt Q9UQB9)
AURKC (human), sequence (Q9UQB9 whole entry, looked up): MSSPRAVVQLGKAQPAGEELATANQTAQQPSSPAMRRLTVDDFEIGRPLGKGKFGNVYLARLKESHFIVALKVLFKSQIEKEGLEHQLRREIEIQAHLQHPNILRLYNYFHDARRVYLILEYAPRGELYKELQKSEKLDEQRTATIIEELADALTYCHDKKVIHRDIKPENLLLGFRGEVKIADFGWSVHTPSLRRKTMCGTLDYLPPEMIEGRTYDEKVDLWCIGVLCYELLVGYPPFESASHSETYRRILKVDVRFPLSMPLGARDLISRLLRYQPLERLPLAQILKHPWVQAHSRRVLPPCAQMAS

STK35 (human) = STK35 (human) (UniProt Q8TDR2)
SIK2 (human) = SIK2 (human) (UniProt Q9H0K1)
CDK8 (human) = CDK8 (human) (UniProt P49336)
CLK1 (human) = CLK1 (human) (UniProt P49759)
MST4 (human) = MST4 (human) (UniProt Q9P289)
MST4 (human), sequence (Q9P289 whole entry, looked up): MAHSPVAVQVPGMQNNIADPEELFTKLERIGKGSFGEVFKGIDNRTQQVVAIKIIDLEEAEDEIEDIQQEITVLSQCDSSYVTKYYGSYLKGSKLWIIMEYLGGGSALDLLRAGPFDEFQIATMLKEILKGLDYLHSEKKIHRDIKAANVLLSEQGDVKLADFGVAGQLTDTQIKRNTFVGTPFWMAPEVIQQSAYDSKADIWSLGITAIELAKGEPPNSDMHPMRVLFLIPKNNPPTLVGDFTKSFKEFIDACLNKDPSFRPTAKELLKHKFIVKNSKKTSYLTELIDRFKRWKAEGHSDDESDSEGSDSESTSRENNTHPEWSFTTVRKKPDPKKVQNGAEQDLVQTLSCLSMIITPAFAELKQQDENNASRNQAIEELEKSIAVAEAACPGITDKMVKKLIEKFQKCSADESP

RIOK1 (human) = RIOK1 (human) (UniProt Q9BRS2)
FGR (human) = FGR (human) (UniProt P09769)
CSNK1G3 (human) = CSNK1G3 (human) (UniProt Q9Y6M4)
MAPK6 (human) = MAPK6 (human) (UniProt Q16659)
ERBB2 (human) = ERBB2 (human) (UniProt P04626)
CSNK1G2 (human) = CSNK1G2 (human) (UniProt P78368)
MELK (human) = MELK (human) (UniProt Q14680)
PRKCH (human) = PRKCH (human) (UniProt P24723)
SRPK1 (human) = SRPK1 (human) (UniProt Q96SB4)
AKT3 (human) = AKT3 (human) (UniProt Q9Y243)
AKT3 (human), sequence (Q9Y243 whole entry, looked up): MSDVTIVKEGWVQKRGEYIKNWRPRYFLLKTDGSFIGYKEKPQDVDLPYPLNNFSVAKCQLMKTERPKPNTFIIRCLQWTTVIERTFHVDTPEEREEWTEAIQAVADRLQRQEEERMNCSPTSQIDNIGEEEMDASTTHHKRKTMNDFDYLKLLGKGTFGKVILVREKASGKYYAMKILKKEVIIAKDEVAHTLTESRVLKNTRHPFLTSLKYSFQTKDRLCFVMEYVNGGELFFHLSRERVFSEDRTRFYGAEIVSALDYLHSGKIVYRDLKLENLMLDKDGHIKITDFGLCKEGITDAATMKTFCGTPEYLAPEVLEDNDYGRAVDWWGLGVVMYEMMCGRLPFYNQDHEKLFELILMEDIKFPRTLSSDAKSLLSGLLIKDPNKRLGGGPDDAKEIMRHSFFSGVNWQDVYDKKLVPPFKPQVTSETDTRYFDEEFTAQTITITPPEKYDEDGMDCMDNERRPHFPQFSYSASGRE

MAP4K4 (human) = MAP4K4 (human) (UniProt O95819)
MAP4K4 (human), sequence (O95819 whole entry, looked up): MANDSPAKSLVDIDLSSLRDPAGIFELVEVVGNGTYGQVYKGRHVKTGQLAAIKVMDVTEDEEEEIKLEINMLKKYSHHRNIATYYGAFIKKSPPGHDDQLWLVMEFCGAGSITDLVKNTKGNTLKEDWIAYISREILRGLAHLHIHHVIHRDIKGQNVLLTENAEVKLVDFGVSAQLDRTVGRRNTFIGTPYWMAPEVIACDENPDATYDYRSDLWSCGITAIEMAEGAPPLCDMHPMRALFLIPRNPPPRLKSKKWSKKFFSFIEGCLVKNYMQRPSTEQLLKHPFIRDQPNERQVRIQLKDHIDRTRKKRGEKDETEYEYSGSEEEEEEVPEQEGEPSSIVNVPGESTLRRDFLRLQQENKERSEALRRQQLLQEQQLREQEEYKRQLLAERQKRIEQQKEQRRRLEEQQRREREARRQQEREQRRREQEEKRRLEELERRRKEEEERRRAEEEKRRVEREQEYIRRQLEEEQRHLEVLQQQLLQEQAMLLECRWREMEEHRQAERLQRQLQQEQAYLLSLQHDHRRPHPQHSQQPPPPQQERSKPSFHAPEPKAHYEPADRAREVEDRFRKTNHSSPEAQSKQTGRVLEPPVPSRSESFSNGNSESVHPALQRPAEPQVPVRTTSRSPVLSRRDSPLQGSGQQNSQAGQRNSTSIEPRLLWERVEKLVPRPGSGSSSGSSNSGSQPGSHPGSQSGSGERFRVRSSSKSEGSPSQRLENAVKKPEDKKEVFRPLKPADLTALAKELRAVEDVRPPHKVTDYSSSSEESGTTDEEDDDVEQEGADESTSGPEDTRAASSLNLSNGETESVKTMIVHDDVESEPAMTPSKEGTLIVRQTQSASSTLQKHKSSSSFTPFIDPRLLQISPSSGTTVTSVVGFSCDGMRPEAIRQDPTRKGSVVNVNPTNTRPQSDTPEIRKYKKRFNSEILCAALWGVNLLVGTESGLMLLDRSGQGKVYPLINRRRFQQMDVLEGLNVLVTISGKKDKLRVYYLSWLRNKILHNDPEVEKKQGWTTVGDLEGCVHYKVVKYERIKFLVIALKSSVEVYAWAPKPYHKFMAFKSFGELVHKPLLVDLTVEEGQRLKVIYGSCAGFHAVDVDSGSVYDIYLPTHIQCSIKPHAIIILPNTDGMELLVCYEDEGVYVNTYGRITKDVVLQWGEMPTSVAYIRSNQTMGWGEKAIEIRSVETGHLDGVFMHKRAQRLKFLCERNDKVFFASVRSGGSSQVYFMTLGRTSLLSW

CAMK2B (human) = CAMK2B (human) (UniProt Q13554)
PRKAA1 (human) = PRKAA1 (human) (UniProt Q13131)
CAMK2A (human) = CAMK2A (human) (UniProt Q9UQM7)
TNIK (human) = TNIK (human) (UniProt Q9UKE5)
RIPK1 (human) = RIPK1 (human) (UniProt Q13546)
RPS6KA4 KD2 (human) = RPS6KA4 KD2 (human) (UniProt O75676)
NLK (human) = NLK (human) (UniProt Q9UBE8)
PRKCQ (human) = PRKCQ (human) (UniProt Q04759)
PRKCQ (human), sequence (Q04759 whole entry, looked up): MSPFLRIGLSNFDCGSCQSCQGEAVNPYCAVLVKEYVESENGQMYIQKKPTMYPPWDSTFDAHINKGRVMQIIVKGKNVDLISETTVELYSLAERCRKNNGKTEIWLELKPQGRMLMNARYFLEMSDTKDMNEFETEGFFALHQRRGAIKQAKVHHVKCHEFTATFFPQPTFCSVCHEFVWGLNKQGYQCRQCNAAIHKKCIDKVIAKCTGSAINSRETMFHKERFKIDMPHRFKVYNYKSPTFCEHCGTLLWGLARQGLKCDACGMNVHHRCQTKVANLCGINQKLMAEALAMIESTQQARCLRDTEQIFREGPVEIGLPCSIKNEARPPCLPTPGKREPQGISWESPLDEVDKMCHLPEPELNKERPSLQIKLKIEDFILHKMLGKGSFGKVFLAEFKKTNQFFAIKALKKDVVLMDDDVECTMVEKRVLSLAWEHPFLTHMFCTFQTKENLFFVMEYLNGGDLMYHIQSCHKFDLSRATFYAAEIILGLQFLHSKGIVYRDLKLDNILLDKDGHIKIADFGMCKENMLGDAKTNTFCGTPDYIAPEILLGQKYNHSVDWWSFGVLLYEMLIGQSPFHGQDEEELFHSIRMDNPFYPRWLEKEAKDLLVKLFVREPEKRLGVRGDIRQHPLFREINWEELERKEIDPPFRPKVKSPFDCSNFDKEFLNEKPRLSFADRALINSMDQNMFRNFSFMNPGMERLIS

BRSK1 (human) = BRSK1 (human) (UniProt Q8TDC3)
NUAK2 (human) = NUAK2 (human) (UniProt Q9H093)

CDC2L2 (human), sequence (Q9UQ88 whole entry, looked up): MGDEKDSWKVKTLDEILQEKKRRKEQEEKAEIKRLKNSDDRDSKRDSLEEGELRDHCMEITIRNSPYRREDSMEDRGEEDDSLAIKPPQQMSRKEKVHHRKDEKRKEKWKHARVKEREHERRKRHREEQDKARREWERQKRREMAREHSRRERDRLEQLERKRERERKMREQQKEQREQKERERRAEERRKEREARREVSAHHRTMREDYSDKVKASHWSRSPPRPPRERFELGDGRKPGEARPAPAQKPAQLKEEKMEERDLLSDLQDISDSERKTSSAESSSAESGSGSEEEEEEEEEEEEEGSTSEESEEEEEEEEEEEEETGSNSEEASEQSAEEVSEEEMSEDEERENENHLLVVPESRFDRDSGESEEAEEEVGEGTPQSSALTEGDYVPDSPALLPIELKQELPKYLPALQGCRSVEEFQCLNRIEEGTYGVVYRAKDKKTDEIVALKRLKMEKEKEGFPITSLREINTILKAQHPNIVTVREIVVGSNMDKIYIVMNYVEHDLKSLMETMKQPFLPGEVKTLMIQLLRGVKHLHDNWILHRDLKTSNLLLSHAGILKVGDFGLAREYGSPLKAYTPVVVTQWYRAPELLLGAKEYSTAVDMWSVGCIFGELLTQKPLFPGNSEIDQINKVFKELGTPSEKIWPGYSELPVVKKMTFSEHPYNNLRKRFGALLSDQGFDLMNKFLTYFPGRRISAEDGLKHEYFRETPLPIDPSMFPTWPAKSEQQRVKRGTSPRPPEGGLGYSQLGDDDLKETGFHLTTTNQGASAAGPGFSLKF

| Compound | kinase still bound, per cent of control (CSNK2A2 (human)) [%] | kinase still bound, per cent of control (CSNK2A1 (human)) [%] | kinase still bound, per cent of control (AKT2 (human)) [%] | kinase still bound, per cent of control (CDC2L2 (human)) [%] | kinase still bound, per cent of control (CDK9 (human)) [%] | kinase still bound, per cent of control (MKNK1 (human)) [%] | kinase still bound, per cent of control (LIMK2 (human)) [%] | kinase still bound, per cent of control (CAMK2D (human)) [%] | kinase still bound, per cent of control (MYLK (human)) [%] | kinase still bound, per cent of control (PAK1 (human)) [%] | kinase still bound, per cent of control (FLT4 (human)) [%] | kinase still bound, per cent of control (LATS1 (human)) [%] | kinase still bound, per cent of control (PRKD1 (human)) [%] | kinase still bound, per cent of control (AURKC (human)) [%] | kinase still bound, per cent of control (STK35 (human)) [%] | kinase still bound, per cent of control (SIK2 (human)) [%] | kinase still bound, per cent of control (CDK8 (human)) [%] | kinase still bound, per cent of control (CLK1 (human)) [%] | kinase still bound, per cent of control (MST4 (human)) [%] | kinase still bound, per cent of control (RIOK1 (human)) [%] | further results |
| --- | --- | --- | --- | --- | --- | --- | --- | --- | --- | --- | --- | --- | --- | --- | --- | --- | --- | --- | --- | --- | --- |
| C=CC(=O)Nc1cccc(Oc2nc(Nc3ccc(N4CCN(C)CC4)cc3OC)ncc2Cl)c1 | 100 | 100 | 100 | 100 | 100 | 100 | 100 | 100 | 100 | 100 | 100 | 100 | 12 | 4.5 | 100 | 20 | 100 | 13 | 100 | 17 | kinase still bound, per cent of control (FGR (human)): 100%; kinase still bound, per cent of control (CSNK1G3 (human)): 100%; kinase still bound, per cent of control (MAPK6 (human)): 100%; kinase still bound, per cent of control (ERBB2 (human)): 1.8%; kinase still bound, per cent of control (CSNK1G2 (human)): 100%; kinase still bound, per cent of control (MELK (human)): 14%; kinase still bound, per cent of control (PRKCH (human)): 100%; kinase still bound, per cent of control (SRPK1 (human)): 21%; kinase still bound, per cent of control (AKT3 (human)): 100%; kinase still bound, per cent of control (MAP4K4 (human)): 100%; kinase still bound, per cent of control (CAMK2B (human)): 100%; kinase still bound, per cent of control (PRKAA1 (human)): 28%; kinase still bound, per cent of control (CAMK2A (human)): 100%; kinase still bound, per cent of control (TNIK (human)): 100%; kinase still bound, per cent of control (RIPK1 (human)): 9.4%; kinase still bound, per cent of control (RPS6KA4 KD2 (human)): 16%; kinase still bound, per cent of control (NLK (human)): 100%; kinase still bound, per cent of control (PRKCQ (human)): 100%; kinase still bound, per cent of control (BRSK1 (human)): 100%; kinase still bound, per cent of control (NUAK2 (human)): 0.3% |
| Cc1ccc(C(=O)Nc2cccc(C(F)(F)F)c2)cc1Nc1cncc(C(N)=O)c1 | 100 | 100 | 100 | 100 | 100 | 100 | 100 | 100 | 100 | 100 | 100 | 100 | 100 | 100 | 100 | 100 | 100 | 100 | 100 | 100 | kinase still bound, per cent of control (FGR (human)): 100%; kinase still bound, per cent of control (CSNK1G3 (human)): 100%; kinase still bound, per cent of control (MAPK6 (human)): 100%; kinase still bound, per cent of control (ERBB2 (human)): 100%; kinase still bound, per cent of control (CSNK1G2 (human)): 100%; kinase still bound, per cent of control (MELK (human)): 100%; kinase still bound, per cent of control (PRKCH (human)): 100%; kinase still bound, per cent of control (SRPK1 (human)): 100%; kinase still bound, per cent of control (AKT3 (human)): 100%; kinase still bound, per cent of control (MAP4K4 (human)): 100%; kinase still bound, per cent of control (CAMK2B (human)): 100%; kinase still bound, per cent of control (PRKAA1 (human)): 100%; kinase still bound, per cent of control (CAMK2A (human)): 100%; kinase still bound, per cent of control (TNIK (human)): 100%; kinase still bound, per cent of control (RIPK1 (human)): 100%; kinase still bound, per cent of control (RPS6KA4 KD2 (human)): 100%; kinase still bound, per cent of control (NLK (human)): 100%; kinase still bound, per cent of control (PRKCQ (human)): 100%; kinase still bound, per cent of control (BRSK1 (human)): 100%; kinase still bound, per cent of control (NUAK2 (human)): 100% |
